In US12390423B2 (priority 2019, dated 2025):
“Also recorded” adds a separate entry of the source.

Key:
[1] = Intraperitoneal glucose and insulin tolerance tests (GTT, ITT) and HOMA-IR in DIO mice; format: in vivo, C57BL/6J mice; conditions: HFD mice, AvoB 100 mg/kg b.w. twice weekly
Protocol: Intraperitoneal glucose and insulin tolerance tests (GTT and ITT) were performed 8 hours after food withdrawal. For GTT, a glucose dose of 1.5 g/kg was used for mice on both HFD and standard diet. For ITT, an insulin (Humulin, Eli Lilly, USA) dose of 1 U/kg and 0.25 U/kg was used for mice on HFD and standard diet, respectively. Blood glucose levels were determined at 0, 10, 20, 30, 60, and 90 minutes after glucose/insulin administration via tail bleed using the OneTouch Blood Ultra 2 glucose meters (LifeScan Europe, Switzerland).
The homeostasis model assessment was used to calculate the insulin resistance (HOMA-IR) index^60 using the values of fasting plasma glucose (FPG) and fasting plasma insulin (FPI) as follows: […]; HOMA-IR=FPGxFPI/22.5, with FPG expressed as mmol/L and FPI as mIU/L.

INS-1 (832/13) cells [2] = test: Cytosolic calcium determination (fluo-3AM) in INS-1 (832/13) cells; format: cell-based, rat; conditions: 0.5 mM palmitate, non-stimulatory glucose, AvoB 25 μM, ETO 100 μM, TMB-8 10 μM
Protocol: INS-1 (832/13) cells were treated as described for the FAO assays but also with metabolic modulators dichloroacetate (DCA) (1 mM) and trimetazidine (25 μM) as well as 10 μM endoplasmic reticulum calcium blocker 8-(N,N-Diethylamino)-octyl-3,4,5-trimethoxybenzoate HCl (TMB-8) (Sigma Aldrich) or 25 nM cyclosporin (Sigma Aldrich) in the presence of 0.5 mM palmitate/1 mM L-carnitine. Cytosolic calcium was measured in INS-1 (832/13) cells using fluo-3AM (Invitrogen, F1241) charged fluorescent dye that accumulates in the cytosol and emits green fluorescence after binding calcium ions. A stock solution of 10 mM fluo-3AM was diluted to 5 μM in fluo-3AM loading buffer (10 mM 4-(2-hydroxyethyl)-1-piperazineethanesulfonic acid (HEPES), 137 mM NaCl, […], 1 mM Na2HPO4, 5 mM glucose, and 0.5 mM MgCl2 (pH 7.4)]. After treatment, cells were incubated in fluo-3AM loading buffer for 30 min at 37° C. with gentle agitation after which cells were washed twice with PBS, trypsinized and collected for flow cytometry analysis. Cytosolic calcium was quantified by taking the mean green fluorescence values of live gated cells and normalizing to vehicle control.

pAkt-Ser473 and CPT-1A = test: Immunoblotting of gastrocnemius muscle lysates of DIO mice; format: in vivo, C57BL/6J mice
Protocol: For all cell culture experiments, after drug treatments cells were washed with chilled phosphate-buffered saline (PBS), and lysed in chilled lysis buffer with 1× protease inhibitor cocktail (Sigma). RIPA lysis buffer (Sigma-Aldrich) was used for INS-1 (832/13) cells and muscle lysis buffer for C2C12 myotubes (20 mM HEPES, 10 mM NaCl, 1.5 mM MgCl2, 1 mM DTT, 20% glycerol, and 0.1% Triton-X100). Cells were scraped, mechanically homogenized using a syringe and centrifuged at 14,000×g for 20 min at 4° C. and the supernatants were collected. For preparation of all gastrocnemius muscle lysates, 10 mg frozen tissue (wet weight) was washed in chilled PBS, placed in a dounce homogenizer, lysed in muscle lysis buffer and centrifuged at 14,000×g for 20 min at 4° C. and the supernatant was collected. Protein content for cell and tissue lysates was measured using the BCA protein assay kit (ThermoFisher) according to manufacturer's protocol. Thirty μg protein lysates were prepared in loading buffer and immunoblotting was performed by heating lysates for 5 minutes at 95° C. and subjecting them to gel electrophoresis on 10% SDS-polyacrylamide gels at 150 V for 75 minutes. Using a semi-dry transfer apparatus (Bio-Rad) the gels were then transferred at 25V for 45 minutes to a PVDF membrane and blocked with 5% BSA (Sigma) in tris-buffered saline-tween (TBS-T) for 1 hour. […]

INS-1 (832/13) cells [3] = test: Glucose stimulated insulin secretion (GSIS) in INS-1 (832/13) cells; format: cell-based, rat; conditions: 0.5 mM palmitate 24 h, AvoB 25 μM, ETO 100 μM
Protocol: To measure glucose stimulated insulin secretion (GSIS) in INS-1(832/13) cells a standard protocol was adopted. […] After treatments were complete, cell media was replaced with KRB (Krebs-Ringer Bicarbonate) buffer. Cells were then challenged with 3 mM glucose for 2 h in KRB buffer after which 500 μL KRB buffer was collected and frozen in −80° C. until analysis. For another 2 h, cells were challenged with 16 mM glucose after which 500 μL KRB was collected and frozen in −80° C. until analysis. The amount of insulin released into the KRB buffer was determined by an ELISA kit (Millipore, Rat/Mouse Insulin Detection kit). Data was normalized for cellular protein content, as determined by the Micro-BCA Protein Assay kit. The glucose-dependent insulin secretory index (GSIS16/3), defined as the ratio between the insulin secretion at 16 mM (stimulatory, surrogate to postprandial glucose levels) and 3 mM (basal, surrogate to fasting glucose levels) glucose was also calculated.

avocatin B [AvoB]
HOMA-IR index [1]: comparable to lean, STD mice | Glucose tolerance (GTT, AUC) ([1]; vs HFD-control, i.p. glucose 1.5 g/kg): significantly improved glucose tolerance | Whole body insulin sensitivity (ITT, AUC) ([1]; vs HFD-control, i.p. insulin): greater insulin sensitivity | Cytosolic Ca2+ (Fluo-3AM) (INS-1 (832/13) cells [2]): able to reduce cytosolic Ca^2+ | Phosphorylation of AKT Ser473 in gastrocnemius muscle (pAkt-Ser473 and CPT-1A; AvoB-treated-HFD mice vs HFD-control mice): increased phosphorylation of AKTSer473 | CPT-1A protein level in gastrocnemius muscle (pAkt-Ser473 and CPT-1A; HFD-control mice compared to AVO-treated-HFD mice): higher protein levels of CPT-1A in gastrocnemius muscle compared to AVO-treated-HFD mice | Glucose stimulated insulin secretion (GSIS) (INS-1 (832/13) cells [3]): rescued; also recorded: GSIS was higher
